Measurements: ChEMBL document CHEMBL4152332, “Discovery and synthesis of novel magnolol derivatives with potent anticancer activity in non-small cell lung cancer” (Eur J Med Chem, 2018)
≈ marks a conversion by molar mass, not a printed value.

What was measured:
[1] = tested on: NCI-H1975; assay: Induction of apoptosis in human NCI-H1975 cells assessed as late apoptotic cells at 5 uM after 48 hrs by annexin V/FITC-propidium iodide staining-based flow cytometric method ( Rvb = 10.4%); assay type: functional
[2] = tested on: NCI-H1975; assay: Antiproliferative activity against human NCI-H1975 cells after 72 hrs by MTT assay; assay type: functional, cell-based; conditions: NCI-H1975, 72 h
[3] = tested on: NCI-H1975; assay: Cell cycle arrest in human NCI-H1975 cells assessed as accumulation at S phase at 20 uM after 24 hrs by propidium iodide staining-based flow cytometric analysis (reference value: 22.93%); assay type: functional
[4] = tested on: A549; assay: Antiproliferative activity against human A549 cells after 72 hrs by MTT assay; assay type: functional, cell-based; conditions: A549, 72 h
[5] = Apparent aqueous solubility of the compound by HPLC analysis; assay type: physicochemical; conditions: aqueous solution
[6] = tested on: NCI-H1975; assay: Induction of apoptosis in human NCI-H1975 cells assessed as early apoptotic cells at 5 uM after 48 hrs by annexin V/FITC-propidium iodide staining-based flow cytometric method ( Rvb = 6.09%); assay type: functional
[7] = tested on: NCI-H441; assay: Antiproliferative activity against human H441 cells after 72 hrs by MTT assay; assay type: functional, cell-based; conditions: NCI-H441, 72 h
[8] = tested on: NCI-H1975; assay: Induction of apoptosis in human NCI-H1975 cells assessed as necrotic cells at 20 uM after 48 hrs by annexin V/FITC-propidium iodide staining-based flow cytometric method ( Rvb = 1.01%); assay type: functional
[9] = tested on: NCI-H1975; assay: Cell cycle arrest in human NCI-H1975 cells assessed as accumulation at S phase at 10 uM after 24 hrs by propidium iodide staining-based flow cytometric analysis (reference value: 22.93%); assay type: functional
[10] = tested on: HCC827; assay: Antiproliferative activity against human HCC827 cells after 72 hrs by MTT assay; assay type: functional, cell-based; conditions: HCC827, 72 h
[11] = tested on: NCI-H1975; assay: Cell cycle arrest in human NCI-H1975 cells assessed as accumulation at G2/M phase at 5 uM after 24 hrs by propidium iodide staining-based flow cytometric analysis (reference value: 20.11%); assay type: functional
[12] = tested on: NCI-H1975; assay: Induction of apoptosis in human NCI-H1975 cells assessed as viable cells at 5 uM after 48 hrs by annexin V/FITC-propidium iodide staining-based flow cytometric method ( Rvb = 82.5%); assay type: functional; conditions: NCI-H1975, 48 h, read-out: Activity
[13] = tested on: NCI-H460; assay: Potency index, ratio of IC50 for honokiol to IC50 for test compound for antiproliferative activity against human H460 cells after 72 hrs by MTT assay; assay type: functional
[14] = tested on: NCI-H1975; assay: Cell cycle arrest in human NCI-H1975 cells assessed as accumulation at G2/M phase at 10 uM after 24 hrs by propidium iodide staining-based flow cytometric analysis (reference value: 20.11%); assay type: functional
[15] = tested on: NCI-H1650; assay: Antiproliferative activity against human NCI-H1650 cells after 72 hrs by MTT assay; assay type: functional, cell-based; conditions: NCI-H1650, 72 h
[16] = tested on: NCI-H1975; assay: Cell cycle arrest in human NCI-H1975 cells assessed as accumulation at S phase at 5 uM after 24 hrs by propidium iodide staining-based flow cytometric analysis (reference value: 22.93%); assay type: functional
[17] = tested on: NCI-H1975; assay: Induction of apoptosis in human NCI-H1975 cells assessed as late apoptotic cells at 20 uM after 48 hrs by annexin V/FITC-propidium iodide staining-based flow cytometric method ( Rvb = 10.4%); assay type: functional
[18] = tested on: NCI-H1975; assay: Induction of apoptosis in human NCI-H1975 cells assessed as necrotic cells at 10 uM after 48 hrs by annexin V/FITC-propidium iodide staining-based flow cytometric method ( Rvb = 1.01%); assay type: functional
[19] = tested on: NCI-H1975; assay: Cell cycle arrest in human NCI-H1975 cells assessed as reduction in accumulation at S phase after 24 hrs by propidium iodide staining-based flow cytometric analysis; assay type: functional
[20] = tested on: NCI-H1975; assay: Induction of apoptosis in human NCI-H1975 cells assessed as viable cells at 20 uM after 48 hrs by annexin V/FITC-propidium iodide staining-based flow cytometric method ( Rvb = 82.5%); assay type: functional; conditions: NCI-H1975, 48 h, read-out: Activity
[21] = tested on: HCC827; assay: Potency index, ratio of IC50 for honokiol to IC50 for test compound for antiproliferative activity against human HCC827 cells after 72 hrs by MTT assay; assay type: functional
[22] = Antiproliferative activity against human SPC-A1 cells after 72 hrs by MTT assay; assay type: functional, cell-based; conditions: SPCA1, 72 h
[23] = tested on: HUVEC; assay: Antimigratory activity against HUVEC after 24 to 48 hrs by phase contrast/fluorescence microscopic analysis; assay type: functional, cell-based; conditions: Homo sapiens
[24] = tested on: NCI-H1975; assay: Cell cycle arrest in human NCI-H1975 cells assessed as reduction in accumulation at G2/M phase after 24 hrs by propidium iodide staining-based flow cytometric analysis; assay type: functional
[25] = tested on: NCI-H1975; assay: Cell cycle arrest in human NCI-H1975 cells assessed as accumulation at G2/M phase at 20 uM after 24 hrs by propidium iodide staining-based flow cytometric analysis (reference value: 20.11%); assay type: functional
[26] = tested on: NCI-H1975; assay: Cell cycle arrest in human NCI-H1975 cells assessed as accumulation at G0/G1 phase at 10 uM after 24 hrs by propidium iodide staining-based flow cytometric analysis (reference value: 56.11%); assay type: functional
[27] = tested on: NCI-H358; assay: Antiproliferative activity against human NCI-H358 cells after 72 hrs by MTT assay; assay type: functional, cell-based; conditions: NCI-H358, 72 h
[28] = tested on: HCC827; assay: Potency index, ratio of IC50 for magnolol to IC50 for test compound for antiproliferative activity against human HCC827 cells after 72 hrs by MTT assay; assay type: functional
[29] = tested on: NCI-H1975; assay: Potency index, ratio of IC50 for honokiol to IC50 for test compound for antiproliferative activity against human NCI-H1975 cells after 72 hrs by MTT assay; assay type: functional
[30] = tested on: NCI-H1975; assay: Induction of apoptosis in human NCI-H1975 cells assessed as necrotic cells at 5 uM after 48 hrs by annexin V/FITC-propidium iodide staining-based flow cytometric method ( Rvb = 1.01%); assay type: functional
[31] = tested on: PC-9; assay: Antiproliferative activity against human PC9 cells after 72 hrs by MTT assay; assay type: functional, cell-based; conditions: PC-9, 72 h
[32] = tested on: NCI-H1975; assay: Induction of apoptosis in human NCI-H1975 cells assessed as late apoptotic cells at 10 uM after 48 hrs by annexin V/FITC-propidium iodide staining-based flow cytometric method ( Rvb = 10.4%); assay type: functional
[33] = tested on: NCI-H460; assay: Antiproliferative activity against human H460 cells after 72 hrs by MTT assay; assay type: functional, cell-based; conditions: NCI-H460, 72 h
[34] = tested on: NCI-H1975; assay: Induction of apoptosis in human NCI-H1975 cells assessed as early apoptotic cells at 20 uM after 48 hrs by annexin V/FITC-propidium iodide staining-based flow cytometric method ( Rvb = 6.09%); assay type: functional
[35] = tested on: NCI-H1975; assay: Cell cycle arrest in human NCI-H1975 cells assessed as accumulation at G0/G1 phase at 20 uM after 24 hrs by propidium iodide staining-based flow cytometric analysis (reference value: 56.11%); assay type: functional
[36] = tested on: NCI-H460; assay: Potency index, ratio of IC50 for magnolol to IC50 for test compound for antiproliferative activity against human H460 cells after 72 hrs by MTT assay; assay type: functional
[37] = tested on: NCI-H1975; assay: Cell cycle arrest in human NCI-H1975 cells assessed as increase in accumulation at G0/G1 phase after 24 hrs by propidium iodide staining-based flow cytometric analysis; assay type: functional
[38] = tested on: NCI-H1975; assay: Induction of apoptosis in human NCI-H1975 cells assessed as early apoptotic cells at 10 uM after 48 hrs by annexin V/FITC-propidium iodide staining-based flow cytometric method ( Rvb = 6.09%); assay type: functional
[39] = tested on: NCI-H1975; assay: Cell cycle arrest in human NCI-H1975 cells assessed as accumulation at G0/G1 phase at 5 uM after 24 hrs by propidium iodide staining-based flow cytometric analysis (reference value: 56.11%); assay type: functional
[40] = tested on: NCI-H1975; assay: Potency index, ratio of IC50 for magnolol to IC50 for test compound for antiproliferative activity against human NCI-H1975 cells after 72 hrs by MTT assay; assay type: functional
[41] = tested on: NCI-H1975; assay: Induction of apoptosis in human NCI-H1975 cells assessed as viable cells at 10 uM after 48 hrs by annexin V/FITC-propidium iodide staining-based flow cytometric method ( Rvb = 82.5%); assay type: functional; conditions: NCI-H1975, 48 h, read-out: Activity
[42] = tested on: NCI-H1975; assay: Induction of apoptosis in human NCI-H1975 cells after 48 hrs by annexin V/FITC-propidium iodide staining-based flow cytometric method; assay type: functional, cell-based
[43] = tested on: Mus musculus; assay: Toxicity in Balb/c mouse implanted with mouse C26 cells assessed as reduction in body weight at 100 mg/kg, po qd treated for 10 days and measured every 2 days; assay type: organism-based; conditions: in vivo

C=CCc1ccc(O)c(-c2cc(CC=C)cc(CN3CCCC(N)C3)c2O)c1 (stereo not drawn)
Activity [1]: 22.5%
IC50 [2]: 4.82 µM
Activity [3]: 4.75%
IC50 [4]: 7.46 µM
solubility [5]: 4080 µg/mL (≈ 10.8 mM)
Activity [6]: 7.56%
IC50 [7]: 7.48 µM
Activity [8]: 0.38%
Activity [9]: 9.26%
IC50 [10]: 4.87 µM
Activity [11]: 16.05%
viability at 5 µM [12]: 69.2%
Ratio IC50 [13]: 4
Activity [14]: 18.21%
IC50 [15]: 6.93 µM
Activity [16]: 16.29%
Activity [17]: 57%
Activity [18]: 0.65%
Activity [19]: Dose-dependent effect
viability at 20 µM [20]: 2.02%
Ratio IC50 [21]: 4
IC50 [22]: 8.43 µM
Activity [23]: Dose-dependent effect
Activity [24]: Dose-dependent effect
Activity [25]: 13.83%
Activity [26]: 70.32%
IC50 [27]: 9.51 µM
Ratio IC50 [28]: 8
Ratio IC50 [29]: 4
Activity [30]: 0.74%
IC50 [31]: 11.4 µM
Activity [32]: 28.3%
IC50 [33]: 5.71 µM
Activity [34]: 40.6%
Activity [35]: 79.88%
Ratio IC50 [36]: 8
Activity [37]: Dose-dependent effect
Activity [38]: 6.45%
Activity [39]: 65.67%
Ratio IC50 [40]: 8
viability at 10 µM [41]: 64.6%
Activity [42]: Dose-dependent effect
Activity [43]: Toxic
